Data taken from PMC4631615 (Bipolar disorders, 2015).
Where “and” joins values, the source holds several entries; their conditions need not be identical. Equal values may be shown once. Marks after values point to notes of the source that are not given here.

Key:
SWV mouse fetuses [1] = test: Skeletal examination of fetuses; format: in vivo
pregnant SWV mice [2] = test: Pregnancy outcomes; format: in vivo, mouse
SWV mouse fetuses [3] = tested on: SWV mouse fetuses
mouse = settings: source not given; cited from earlier work
pregnant SWV mice [4] = test: Maternal body weight and weight gain, teratogenicity study; format: in vivo, mouse; settings: mean ± SD
[5] = 1/6.54 of LD50 (RIS 9.6, OLA 32.1, VCD 152.8 mg/kg) p.o. GD 4–17
[6] = 1/13.1 of LD50 (OLA 16.05 mg/kg) p.o. GD 4–17
[7] = 1/6.54 of LD50 (RIS 9.6, OLA 32.1, VCD 152.8 mg/kg) p.o. GD 4–17, mean ± SD

SMILES: Cc1cc2c(s1)Nc1ccccc1N=C2N1CCN(C)CC1 [OLA, 2-methyl-4-(4-methyl-1-piperazinyl)-10H-thieno(2,3-b)([1],[5])benzodiazepine]
- All vertebra: incomplete ossification, affected fetuses (SWV mouse fetuses [1]; [5]): 3
- All vertebra: incomplete ossification, affected litters (SWV mouse fetuses [1]; [5]): 1
- Cervical vertebra: ossified fusion of centrums, affected fetuses (SWV mouse fetuses [1]; [5]): 0
- Fetuses with skeletal abnormalities, % (SWV mouse fetuses [1]; [5]): 79.2%
- Fibula: bent, affected fetuses (SWV mouse fetuses [1]; [5]): 0
- Metacarpal: absent ossification, affected fetuses (SWV mouse fetuses [1]; [5]): 12
- Metacarpal: absent ossification, affected litters (SWV mouse fetuses [1]; [5]): 8
- Metacarpal: incomplete ossification, affected fetuses (SWV mouse fetuses [1]; [5]): 6
- Metacarpal: incomplete ossification, affected litters (SWV mouse fetuses [1]; [5]): 3
- Metatarsal: absent ossification, affected fetuses (SWV mouse fetuses [1]; [5]): 14
- Metatarsal: absent ossification, affected litters (SWV mouse fetuses [1]; [5]): 9
- Metatarsal: incomplete ossification, affected fetuses (SWV mouse fetuses [1]; [5]): 4
- Metatarsal: incomplete ossification, affected litters (SWV mouse fetuses [1]; [5]): 3
- Ribs: absent 13th, affected fetuses (SWV mouse fetuses [1]; [5]): 1/1
- Ribs: absent 13th, affected litters (SWV mouse fetuses [1]; [5]): 1/1
- Ribs: branched, affected fetuses (SWV mouse fetuses [1]; [5]): 0
- Skull: incomplete ossification, affected fetuses (SWV mouse fetuses [1]; [5]): 1/1
- Skull: incomplete ossification, affected litters (SWV mouse fetuses [1]; [5]): 1/1
- Skull: interparietal incomplete ossification, affected fetuses (SWV mouse fetuses [1]; [5]): 1/1
- Skull: interparietal incomplete ossification, affected litters (SWV mouse fetuses [1]; [5]): 1/1
- Skull: parietal incomplete ossification, affected fetuses (SWV mouse fetuses [1]; [5]): 0
- Skull: supraoccipital incomplete ossification, affected fetuses (SWV mouse fetuses [1]; [5]): 1/1
- Skull: supraoccipital incomplete ossification, affected litters (SWV mouse fetuses [1]; [5]): 1/1
- Sternebra: absent ossification, affected fetuses (SWV mouse fetuses [1]; [5]): 8
- Sternebra: absent ossification, affected litters (SWV mouse fetuses [1]; [5]): 5
- Sternebra: incomplete ossification, affected fetuses (SWV mouse fetuses [1]; [5]): 8
- Sternebra: incomplete ossification, affected litters (SWV mouse fetuses [1]; [5]): 7
- Sternebra: misaligned, affected fetuses (SWV mouse fetuses [1]; [5]): 0
- Sternebra: misshapen, affected fetuses (SWV mouse fetuses [1]; [5]): 0
- Whole skeletal system: incomplete ossification, affected fetuses (SWV mouse fetuses [1]; [5]): 7
- Whole skeletal system: incomplete ossification, affected litters (SWV mouse fetuses [1]; [5]): 3
- All vertebra: incomplete ossification, affected fetuses (SWV mouse fetuses [1]; [6]): 0
- Cervical vertebra: ossified fusion of centrums, affected fetuses (SWV mouse fetuses [1]; [6]): 0
- Fibula: bent, affected fetuses (SWV mouse fetuses [1]; [6]): 0
- Metacarpal: absent ossification, affected fetuses (SWV mouse fetuses [1]; [6]): 1/1
- Metacarpal: absent ossification, affected litters (SWV mouse fetuses [1]; [6]): 1/1
- Metacarpal: incomplete ossification, affected fetuses (SWV mouse fetuses [1]; [6]): 47
- Metacarpal: incomplete ossification, affected litters (SWV mouse fetuses [1]; [6]): 12
- Metatarsal: absent ossification, affected fetuses (SWV mouse fetuses [1]; [6]): 8/8 ^b
- Metatarsal: absent ossification, affected litters (SWV mouse fetuses [1]; [6]): 8/8 ^b
- Metatarsal: incomplete ossification, affected fetuses (SWV mouse fetuses [1]; [6]): 20
- Metatarsal: incomplete ossification, affected litters (SWV mouse fetuses [1]; [6]): 8
- Ribs: absent 13th, affected fetuses (SWV mouse fetuses [1]; [6]): 0
- Ribs: branched, affected fetuses (SWV mouse fetuses [1]; [6]): 0
- Skull: incomplete ossification, affected fetuses (SWV mouse fetuses [1]; [6]): 0
- Skull: interparietal incomplete ossification, affected fetuses (SWV mouse fetuses [1]; [6]): 4
- Skull: interparietal incomplete ossification, affected litters (SWV mouse fetuses [1]; [6]): 3
- Skull: parietal incomplete ossification, affected fetuses (SWV mouse fetuses [1]; [6]): 3
- Skull: parietal incomplete ossification, affected litters (SWV mouse fetuses [1]; [6]): 2
- Skull: supraoccipital incomplete ossification, affected fetuses (SWV mouse fetuses [1]; [6]): 1/1
- Skull: supraoccipital incomplete ossification, affected litters (SWV mouse fetuses [1]; [6]): 1/1
- Sternebra: absent ossification, affected fetuses (SWV mouse fetuses [1]; [6]): 4/4
- Sternebra: absent ossification, affected litters (SWV mouse fetuses [1]; [6]): 4/4
- Sternebra: incomplete ossification, affected fetuses (SWV mouse fetuses [1]; [6]): 25
- Sternebra: incomplete ossification, affected litters (SWV mouse fetuses [1]; [6]): 11
- Sternebra: misaligned, affected fetuses (SWV mouse fetuses [1]; [6]): 0
- Sternebra: misshapen, affected fetuses (SWV mouse fetuses [1]; [6]): 0
- Whole skeletal system: incomplete ossification, affected fetuses (SWV mouse fetuses [1]; [6]): 0
- Fetus weight (pregnant SWV mice [2]; [7]): 0.66 ± 0.09 ^a g
- Resorptions/litter (pregnant SWV mice [2]; [7]): 9.6 ± 3.9 ^a
- Fetus weight (pregnant SWV mice [2]; 1/13.1 of LD50 (OLA 16.05 mg/kg) p.o. GD 4–17, mean ± SD): 0.83 ± 0.10 ^a g
- Embryos resorbed (pregnant SWV mice [2]; 1/13.1 of LD50 (OLA 16.05 mg/kg, low dose) p.o. GD 4–17): 15%
- Overall teratogenicity under the experimental conditions (SWV mouse fetuses [3]; SWV mice, p.o. GD 4–17, doses as fractions of LD50): the most teratogenic of the three test drugs
- Dilated brain ventricles, affected litters (SWV mouse fetuses [3]; female, SWV, mouse, in vivo): 2/2
- Dilated renal pelvis, affected litters (SWV mouse fetuses [3]; female, SWV, mouse, in vivo): 2/2
- Exencephaly, affected fetuses (SWV mouse fetuses [3]; female, SWV, mouse, in vivo): 0
- Malposition stomach, affected fetuses (SWV mouse fetuses [3]; female, SWV, mouse, in vivo): 0
- Right aortic arch, affected fetuses (SWV mouse fetuses [3]; female, SWV, mouse, in vivo): 0
- LD50 mouse, oral (mouse): 210 mg/kg
- Dams net weight gain (pregnant SWV mice [4]; [5]): 5.6 ± 2.0 ^a grams
- Dams weight GD 18 (pregnant SWV mice [4]; [5]): 34.9 grams and 34.9 ± 4.0 ^a grams
- Dams weight gain (pregnant SWV mice [4]; [5]): 8.0 ± 3.5 ^a grams
- Dams net weight gain (pregnant SWV mice [4]; [6]): 8.8 ± 1.8 grams
- Dams weight GD 18 (pregnant SWV mice [4]; [6]): 46.5 ± 3.6 grams
- Dams weight gain (pregnant SWV mice [4]; [6]): 18.7 ± 3.8 grams
